Legend:
Candida albicans = assay: Antimicrobial activity against Candida albicans; format: functional
Trypanosoma cruzi [1] = assay: Antitrypanosomal activity against Trypanosoma cruzi trypomastigotes; format: functional, organism-based
Aspergillus niger = assay: Antimicrobial activity against Aspergillus niger; format: functional
Trypanosoma cruzi [2] = assay: Antitrypanosomal activity against Trypanosoma cruzi epimastigotes; format: functional, organism-based
Leishmania amazonensis = assay: Antileishmanial activity against Leishmania amazonensis promastigotes; format: functional, organism-based
HeLa = assay: Growth inhibition of human HeLa cells at 5 uM; format: functional; conditions: read-out: GI

Q: Which results are given for `C=C(C#N)C(O)c1ccc([N+](=O)[O-])cc1` (stereo unspecified)?
A: zone of inhibition (Candida albicans): 12 mm; IC50 (Trypanosoma cruzi [1]): 25.5 µM; zone of inhibition (Aspergillus niger): 12 mm; IC50 (Trypanosoma cruzi [2]): 28.5 µM

Q: How did the zone of inhibition (Candida albicans) turn out when `C=C(C(=O)OC)C(O)c1ccccc1[N+](=O)[O-]` (stereo unspecified) was run?
A: 12 mm

Q: What about the zone of inhibition (Aspergillus niger) of the same compound?
A: 11 mm

Q: What about the IC50 (Leishmania amazonensis) of the same compound?
A: 50.1 µM

Q: `Cc1ccc(S(=O)(=O)NC(/C(=C/c2ccco2)[N+](=O)[O-])c2ccccc2)cc1` (stereo unspecified) was tested. Which inhibition of growth at 5 µM (HeLa) did it give?
A: 44%

Q: `Cc1ccc(S(=O)(=O)NC(/C(=C/c2ccco2)[N+](=O)[O-])c2ccco2)cc1` (stereo unspecified) was tested. Which inhibition of growth at 5 µM (HeLa) did it give?
A: 32%

Q: With `Cc1ccc(S(=O)(=O)NC(/C(=C/c2ccoc2)[N+](=O)[O-])c2ccccc2)cc1` (stereo unspecified) as the compound, how does the inhibition of growth at 5 µM (HeLa) read?
A: 28%

Q: Which inhibition of growth at 5 µM (HeLa) does the source give for `Cc1ccc(S(=O)(=O)NC(/C(=C/c2ccoc2)[N+](=O)[O-])c2ccco2)cc1` (stereo unspecified) here?
A: 33%

Q: How did the inhibition of growth at 5 µM (HeLa) turn out when `Cc1ccc(S(=O)(=O)NC(/C(=C/c2cccs2)[N+](=O)[O-])c2ccccc2)cc1` (stereo unspecified) was run?
A: 49%

Q: `Cc1ccc(S(=O)(=O)NC(/C(=C/c2cccs2)[N+](=O)[O-])c2ccco2)cc1` (stereo unspecified) was tested. Which inhibition of growth at 5 µM (HeLa) did it give?
A: 28%

Q: `Cc1ccc(S(=O)(=O)NC(/C(=C/c2ccsc2)[N+](=O)[O-])c2ccccc2)cc1` (stereo unspecified) was tested. Which inhibition of growth at 5 µM (HeLa) did it give?
A: 45%

Q: With `COc1ccc(/C=C(/C(NS(=O)(=O)c2ccc(C)cc2)c2ccccc2)[N+](=O)[O-])cc1` (stereo unspecified) as the compound, how does the inhibition of growth at 5 µM (HeLa) read?
A: 23%

Q: For `COc1ccc(/C=C(/C(NS(=O)(=O)c2ccc(C)cc2)c2ccccc2)[N+](=O)[O-])cc1OC` (stereo unspecified), which inhibition of growth at 5 µM (HeLa) is on record?
A: 35%

Q: How did the inhibition of growth at 5 µM (HeLa) turn out when `Cc1ccc(S(=O)(=O)NC(/C(=C/c2ccc3c(c2)OCO3)[N+](=O)[O-])c2ccccc2)cc1` (stereo unspecified) was run?
A: 29%

Q: Which inhibition of growth at 5 µM (HeLa) does the source give for `CC(=O)CC/C(=C/c1ccc(Cl)cc1)[N+](=O)[O-]` here?
A: > 70%

Q: How did the inhibition of growth at 5 µM (HeLa) turn out when `COc1ccc(/C=C(/CCC(C)=O)[N+](=O)[O-])cc1` was run?
A: > 70%

Q: How did the inhibition of growth at 5 µM (HeLa) turn out when `CC(=O)CC/C(=C/c1ccccc1)[N+](=O)[O-]` was run?
A: > 70%

Q: How did the IC50 (Leishmania amazonensis) turn out when `C=C(C(=O)OC)C(O)c1cccc([N+](=O)[O-])c1` (stereo unspecified) was run?
A: 452 µM

Q: What does the source list for `C=C(C(=O)OCC)C(O)c1ccc(Cl)cc1` (stereo unspecified)?
A: zone of inhibition (Candida albicans): 12 mm; zone of inhibition (Aspergillus niger): 11 mm

Q: Which results are given for `C=C(C#N)C(O)c1ccc(Cl)cc1` (stereo unspecified)?
A: zone of inhibition (Candida albicans): 13 mm; zone of inhibition (Aspergillus niger): 12 mm

Q: How did the zone of inhibition (Candida albicans) turn out when `C=C(C(=O)OCC)C(O)c1ccccc1OC` (stereo unspecified) was run?
A: 12 mm

Q: How did the zone of inhibition (Candida albicans) turn out when `C=C(C#N)C(O)c1ccc(F)cc1` (stereo unspecified) was run?
A: 13 mm

Q: What about the zone of inhibition (Aspergillus niger) of the same compound?
A: 11 mm

Q: What does the source list for `C=C(C(=O)OCC)C(O)c1ccc(F)cc1` (stereo unspecified)?
A: zone of inhibition (Candida albicans): 15 mm; zone of inhibition (Aspergillus niger): 14 mm

Q: How did the zone of inhibition (Candida albicans) turn out when `C=C(C#N)C(O)c1ccccc1Cl` (stereo unspecified) was run?
A: 13 mm

Q: What about the zone of inhibition (Aspergillus niger) of the same compound?
A: 14 mm

Q: Which results are given for `C=C(C(=O)OCC)C(O)c1ccccc1Cl` (stereo unspecified)?
A: zone of inhibition (Candida albicans): 13 mm; zone of inhibition (Aspergillus niger): 14 mm

Q: With `C=C(C#N)C(O)c1ccc(Cl)cc1Cl` (stereo unspecified) as the compound, how does the zone of inhibition (Candida albicans) read?
A: 11 mm

Q: And the zone of inhibition (Aspergillus niger)?
A: 13 mm

Q: For `C=C(C(=O)OCC)C(O)c1ccc(Cl)cc1Cl` (stereo unspecified), which zone of inhibition (Candida albicans) is on record?
A: 15 mm

Q: What about the zone of inhibition (Aspergillus niger) of the same compound?
A: 11 mm

Q: With `C=C(C(=O)OCC)C(O)c1cccc([N+](=O)[O-])c1` (stereo unspecified) as the compound, how does the zone of inhibition (Candida albicans) read?
A: 14 mm

Q: And the zone of inhibition (Aspergillus niger)?
A: 13 mm

Q: Which results are given for `C=C(C(=O)OCC)C(O)c1ccc([N+](=O)[O-])cc1` (stereo unspecified)?
A: zone of inhibition (Candida albicans): 11 mm; zone of inhibition (Aspergillus niger): 12 mm

Q: What does the source list for `C=C(C(=O)CC)C(O)c1ccc(Cl)cc1` (stereo unspecified)?
A: zone of inhibition (Candida albicans): 12 mm; zone of inhibition (Aspergillus niger): 13 mm

Q: For `C=C(C#N)C(O)c1ccccc1OC` (stereo unspecified), which zone of inhibition (Aspergillus niger) is on record?
A: 12 mm

Q: How did the zone of inhibition (Candida albicans) turn out when `C=C(C(=O)OC)C(O)c1ccc([N+](=O)[O-])cc1` (stereo unspecified) was run?
A: 13 mm

Q: What about the IC50 (Leishmania amazonensis) of the same compound?
A: 196 µM

Q: What does the source list for `C=C(C#N)C(O)c1cccc([N+](=O)[O-])c1` (stereo unspecified)?
A: zone of inhibition (Candida albicans): 10 mm; zone of inhibition (Aspergillus niger): 14 mm

Q: With `C=C(C#N)C(O)c1ccccc1[N+](=O)[O-]` (stereo unspecified) as the compound, how does the zone of inhibition (Candida albicans) read?
A: 13 mm

Q: What about the zone of inhibition (Aspergillus niger) of the same compound?
A: 11 mm

Reference: ChEMBL document CHEMBL2046434, “Morita-Baylis-Hillman adducts: biological activities and potentialities to the discovery of new cheaper drugs” (Bioorg Med Chem, 2012)
